These compounds were tested against Axl kinase (Homo sapiens (Human), UniProt P30530) (assay: Axl kinase assay (AlphaScreen)). Conditions: activity level class.
Assay type: biochemical

Sequence of Axl kinase (P30530 26-894): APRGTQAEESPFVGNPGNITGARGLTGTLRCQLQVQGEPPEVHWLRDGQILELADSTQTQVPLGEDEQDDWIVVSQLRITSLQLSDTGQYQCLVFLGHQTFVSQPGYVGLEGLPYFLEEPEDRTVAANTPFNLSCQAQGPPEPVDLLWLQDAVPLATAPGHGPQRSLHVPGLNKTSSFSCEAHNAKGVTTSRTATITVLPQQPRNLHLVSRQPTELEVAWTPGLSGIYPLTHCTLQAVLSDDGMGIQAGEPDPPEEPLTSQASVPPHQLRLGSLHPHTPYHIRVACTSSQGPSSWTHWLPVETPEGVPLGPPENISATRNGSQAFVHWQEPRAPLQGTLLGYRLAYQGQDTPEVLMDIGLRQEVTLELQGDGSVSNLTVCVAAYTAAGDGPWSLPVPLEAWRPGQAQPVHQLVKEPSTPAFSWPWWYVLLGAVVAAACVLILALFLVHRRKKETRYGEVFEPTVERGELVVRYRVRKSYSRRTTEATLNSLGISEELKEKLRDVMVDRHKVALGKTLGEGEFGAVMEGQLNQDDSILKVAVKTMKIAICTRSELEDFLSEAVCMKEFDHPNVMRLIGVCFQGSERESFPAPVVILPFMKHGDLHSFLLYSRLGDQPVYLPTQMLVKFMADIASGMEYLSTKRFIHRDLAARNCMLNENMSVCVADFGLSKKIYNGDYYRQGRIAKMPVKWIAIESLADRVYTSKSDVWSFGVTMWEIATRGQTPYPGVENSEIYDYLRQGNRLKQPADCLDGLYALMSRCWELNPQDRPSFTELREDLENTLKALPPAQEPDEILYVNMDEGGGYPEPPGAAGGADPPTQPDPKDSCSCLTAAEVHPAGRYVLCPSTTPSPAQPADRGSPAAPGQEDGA

Row | Compound | IC50 [nM]
1 | COCCOc1nc(Nc2ccc(CN3CCN(C)CC3)cc2)nc2[nH]cc(-c3ccc(NS(=O)(=O)c4cc(F)ccc4F)cc3)c12 [Compound 1, 2,5-difluoro-N-(4-(4-(2-methoxyethoxy)-2-((4-((4-methylpiperazin-1-yl)methyl)phenyl)amino)-7H-pyrrolo[2,3-d]pyrimidin-5-yl)phenyl)benzene-sulfonamide] | < 30
2 | COCCOc1nc(Nc2ccc(CN3CCC(C)CC3)cc2)nc2[nH]cc(-c3ccc(NS(=O)(=O)c4cc(F)ccc4F)cc3)c12 [Compound 3, 2,5-difluoro-N-(4-(4-(2-methoxyethoxy)-2-((4-((4-methylpiperidin-1-yl)methyl)phenyl)amino)-7H-pyrrolo[2,3-d]pyrimidin-5-yl)phenyl)benzene-sulfonamide] | < 30
3 | COc1nc(Nc2ccc(CN3CCC(C)CC3)cc2)nc2[nH]cc(-c3ccc(NS(C)(=O)=O)cc3)c12 [Compound 4, N-(4-(4-methoxy-2-((4-((4-methylpiperidin-1-yl)methyl)phenyl)amino)-7H-pyrrolo[2,3-d]pyrimidin-5-yl)phenyl)methane-sulfonamide] | < 30
4 | COc1nc(Nc2ccc(CN3CCC(C)CC3)cc2)nc2[nH]cc(-c3ccc(S(=O)(=O)N(C)C)cc3)c12 [Compound 5, 4-(4-methoxy-2-((4-((4-methylpiperidin-1-yl)methyl)phenyl)amino)-7H-pyrrolo[2,3-d]pyrimidin-5-yl)-N,N-dimethylbenzene-sulfonamide] | < 30
5 | COCCOc1nc(Nc2ccc(CN3CCN(C)CC3)cc2)nc2[nH]cc(-c3ccc(OCc4cc(C)ccn4)cc3F)c12 [Compound 9, 5-(2-fluoro-4-((4-methylpyridin-2-yl)methoxy)phenyl)-4-(2-methoxyethoxy)-N-(4-((4-methylpiperazin-1-yl)methyl)phenyl)-7H-pyrrolo[2,3-d]pyrimidin-2-amine] | < 30
6 | COCCOc1nc(Nc2ccc(CN3CCN(C)CC3)cc2)nc2[nH]cc(-c3ccc(OCc4ncccc4C)cc3F)c12 [Compound 11, 5-(2-fluoro-4-((3-methylpyridin-2-yl)methoxy)phenyl)-4-(2-methoxyethoxy)-N-(4-((4-methylpiperazin-1-yl)methyl)phenyl)-7H-pyrrolo[2,3-d]pyrimidin-2-amine] | < 30
7 | COc1nc(Nc2ccc(CN3CCN(C)CC3)cc2)nc2[nH]cc(-c3ccc(O)cc3)c12 [Compound 17, 4-(4-methoxy-2-((4-((4-methylpiperazin-1-yl)methyl)phenyl)amino)-7H-pyrrolo [2,3-d]pyrimidin-5-yl)phenol] | < 30
8 | CCN1CCN(Cc2ccc(Nc3nc(OCCOC)c4c(-c5ccc(OCc6ccccn6)cc5F)c[nH]c4n3)cc2)CC1 [Compound 19, N-(4-((4-ethylpiperazin-1-yl)methyl)phenyl)-5-(2-fluoro-4-(pyridin-2-ylmethoxy)phenyl)-4-(2-methoxyethoxy)-7H-pyrrolo[2,3-d]pyrimidin-2-amine] | < 30
9 | COc1nc(Nc2ccc(CN3CCC(C)CC3)cc2)nc2[nH]cc(-c3ccc(O)cc3)c12 [Compound 28, 4-(4-methoxy-2-((4-((4-methylpiperidin-1-yl)methyl)phenyl)amino)-7H-pyrrolo[2,3-d]pyrimidin-5-yl)phenol] | < 30
10 | COCCOc1nc(Nc2ccc(CN3CCC(C)CC3)cc2)nc2[nH]cc(-c3ccc(OCc4ncccn4)cc3F)c12 [Compound 34, 5-(2-fluoro-4-(pyrimidin-2-ylmethoxy)phenyl)-4-(2-methoxyethoxy)-N-(4-((4-methylpiperidin-1-yl)methyl)phenyl)-7H-pyrrolo[2,3-d]pyrimidin-2-amine] | < 30
11 | COc1nc(Nc2ccc(CN3CCN(C)CC3)cc2)nc2[nH]cc(-c3ccc(F)cc3)c12 [Compound 38, 5-(4-fluorophenyl)-4-methoxy-N-(4-((4-methylpiperazin-1-yl)methyl)phenyl)-7H-pyrrolo[2,3-d]pyrimidin-2-amine] | < 30

Source: patent publication US11407757B2, “Heterocycle compounds as Tyro3, Axl and MerTK (TAM) family of receptor tyrosine kinase inhibitors” (Development Center for Biotechnology, priority 2017, dated 2022)
